This is an account of results in patent publication EP4467141A1, “PYRAZOLO-QUINOLINES AS SELECTIVE INHIBITORS OF GENOTOXIC STRESS-INDUCED IKK/NF- KB PATHWAYS FOR CANCER THERAPY” (Max-Delbrück-Centrum für Molekulare Medizin in der …, priority 2023, dated 2024).

Common to all, as to assay: Kinase panel study
What all share (assay type): biochemical
Conditions in all cases: read-out: Percentage of inhibition; for inhibition at 1 µM: 1000nM; for inhibition at 10 µM: 10000nM

For assay [1], the target named is T1, AMPK (A1/B2/G3) (Homo sapiens, UniProt Q13131).
T1 construct: purchased Thermo Fisher Scientific
T1 sequence (Q13131 whole entry): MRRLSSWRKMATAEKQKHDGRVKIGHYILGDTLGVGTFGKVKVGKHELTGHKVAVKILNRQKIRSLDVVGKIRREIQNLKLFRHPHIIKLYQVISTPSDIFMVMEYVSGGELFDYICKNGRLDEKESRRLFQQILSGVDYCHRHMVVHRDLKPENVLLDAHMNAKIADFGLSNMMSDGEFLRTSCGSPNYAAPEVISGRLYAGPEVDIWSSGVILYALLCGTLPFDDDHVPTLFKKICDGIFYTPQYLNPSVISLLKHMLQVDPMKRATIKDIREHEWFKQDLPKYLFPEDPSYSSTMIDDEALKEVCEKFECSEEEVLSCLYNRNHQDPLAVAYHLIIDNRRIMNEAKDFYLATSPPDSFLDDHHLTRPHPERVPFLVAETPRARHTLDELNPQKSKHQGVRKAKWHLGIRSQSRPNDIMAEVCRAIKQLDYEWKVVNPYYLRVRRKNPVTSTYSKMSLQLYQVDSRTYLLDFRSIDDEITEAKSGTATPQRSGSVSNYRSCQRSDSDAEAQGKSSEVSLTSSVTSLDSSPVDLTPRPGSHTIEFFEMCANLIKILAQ
T1 sequence (O43741 whole entry partner): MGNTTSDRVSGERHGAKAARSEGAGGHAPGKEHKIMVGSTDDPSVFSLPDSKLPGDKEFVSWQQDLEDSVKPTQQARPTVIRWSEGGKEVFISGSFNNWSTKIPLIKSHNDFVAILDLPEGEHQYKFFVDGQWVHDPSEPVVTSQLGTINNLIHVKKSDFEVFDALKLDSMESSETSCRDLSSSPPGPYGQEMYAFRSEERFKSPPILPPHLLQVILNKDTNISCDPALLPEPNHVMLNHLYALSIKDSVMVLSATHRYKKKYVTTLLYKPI
T1 sequence (Q9UGI9 whole entry partner): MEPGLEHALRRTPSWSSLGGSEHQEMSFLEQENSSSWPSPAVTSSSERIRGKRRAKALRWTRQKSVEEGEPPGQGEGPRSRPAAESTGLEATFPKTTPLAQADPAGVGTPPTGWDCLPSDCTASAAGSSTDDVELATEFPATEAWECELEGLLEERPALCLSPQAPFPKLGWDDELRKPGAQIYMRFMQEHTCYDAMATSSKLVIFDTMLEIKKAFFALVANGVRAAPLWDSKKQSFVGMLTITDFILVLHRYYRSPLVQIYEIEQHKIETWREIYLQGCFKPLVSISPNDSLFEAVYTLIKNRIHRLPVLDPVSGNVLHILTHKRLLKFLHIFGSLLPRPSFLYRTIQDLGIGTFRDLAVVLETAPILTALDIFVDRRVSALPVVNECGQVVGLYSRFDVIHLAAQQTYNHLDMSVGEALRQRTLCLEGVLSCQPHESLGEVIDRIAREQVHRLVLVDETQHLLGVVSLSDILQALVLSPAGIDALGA
In a few lines: (§1)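 Single-point inhibition data at 10 µM or 1 µM compound are shown. They were generated in ZLyte- or Adapta-format biochemical assays performed externally under standard conditions.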

In assay [2] the target is T2, AURKA (Aurora A) (Homo sapiens, UniProt O14965).
T2 construct: purchased Thermo Fisher Scientific
T2 sequence (O14965 1-403): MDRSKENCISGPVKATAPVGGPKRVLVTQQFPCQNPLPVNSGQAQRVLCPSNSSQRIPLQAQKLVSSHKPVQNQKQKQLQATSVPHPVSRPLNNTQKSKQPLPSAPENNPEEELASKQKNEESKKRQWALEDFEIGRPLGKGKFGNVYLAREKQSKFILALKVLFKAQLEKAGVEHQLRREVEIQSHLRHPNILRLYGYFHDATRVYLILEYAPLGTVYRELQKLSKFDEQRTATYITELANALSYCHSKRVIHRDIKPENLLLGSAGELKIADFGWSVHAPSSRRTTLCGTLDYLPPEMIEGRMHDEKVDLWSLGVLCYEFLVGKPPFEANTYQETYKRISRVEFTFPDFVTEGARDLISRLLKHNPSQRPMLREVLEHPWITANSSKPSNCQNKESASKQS
In a few lines:
as §1

In assay [3] the target is T3, AMPK (A2/B1/G3) (Homo sapiens, UniProt P54646).
T3 construct: purchased Thermo Fisher Scientific
T3 sequence (P54646 whole entry): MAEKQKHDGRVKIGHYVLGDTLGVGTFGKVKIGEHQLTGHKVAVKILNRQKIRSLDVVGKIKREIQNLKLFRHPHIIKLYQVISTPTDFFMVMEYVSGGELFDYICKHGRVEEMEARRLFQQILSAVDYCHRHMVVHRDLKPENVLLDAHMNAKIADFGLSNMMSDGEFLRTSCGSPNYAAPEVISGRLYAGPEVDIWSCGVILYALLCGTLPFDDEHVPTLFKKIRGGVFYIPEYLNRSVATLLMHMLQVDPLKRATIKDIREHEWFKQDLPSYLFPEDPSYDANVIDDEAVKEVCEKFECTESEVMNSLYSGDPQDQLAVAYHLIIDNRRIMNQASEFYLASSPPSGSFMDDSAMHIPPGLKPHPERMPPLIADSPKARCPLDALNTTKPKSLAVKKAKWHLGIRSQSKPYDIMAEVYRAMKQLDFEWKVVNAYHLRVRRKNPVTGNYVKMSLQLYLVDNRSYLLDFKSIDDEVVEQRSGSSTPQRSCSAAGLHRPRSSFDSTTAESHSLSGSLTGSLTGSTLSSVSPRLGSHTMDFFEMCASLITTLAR
T3 sequence (Q9Y478 whole entry partner): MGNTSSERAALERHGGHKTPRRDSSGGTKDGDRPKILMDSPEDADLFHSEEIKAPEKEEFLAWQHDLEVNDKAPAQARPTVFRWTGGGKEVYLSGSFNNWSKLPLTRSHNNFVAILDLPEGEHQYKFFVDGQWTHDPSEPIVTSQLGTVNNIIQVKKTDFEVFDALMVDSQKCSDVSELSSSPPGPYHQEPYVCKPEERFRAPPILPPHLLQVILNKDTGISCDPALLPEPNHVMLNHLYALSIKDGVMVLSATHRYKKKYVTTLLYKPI
T3 sequence (Q9UGI9 whole entry partner): as the sequence (Q9UGI9 whole entry partner) above
Summed up:
as §1

In assay [4] the target is T4, IKBKE (IKK epsilon) (Homo sapiens, UniProt Q14164).
T4 construct: purchased Thermo Fisher Scientific
T4 sequence (Q14164 1-716): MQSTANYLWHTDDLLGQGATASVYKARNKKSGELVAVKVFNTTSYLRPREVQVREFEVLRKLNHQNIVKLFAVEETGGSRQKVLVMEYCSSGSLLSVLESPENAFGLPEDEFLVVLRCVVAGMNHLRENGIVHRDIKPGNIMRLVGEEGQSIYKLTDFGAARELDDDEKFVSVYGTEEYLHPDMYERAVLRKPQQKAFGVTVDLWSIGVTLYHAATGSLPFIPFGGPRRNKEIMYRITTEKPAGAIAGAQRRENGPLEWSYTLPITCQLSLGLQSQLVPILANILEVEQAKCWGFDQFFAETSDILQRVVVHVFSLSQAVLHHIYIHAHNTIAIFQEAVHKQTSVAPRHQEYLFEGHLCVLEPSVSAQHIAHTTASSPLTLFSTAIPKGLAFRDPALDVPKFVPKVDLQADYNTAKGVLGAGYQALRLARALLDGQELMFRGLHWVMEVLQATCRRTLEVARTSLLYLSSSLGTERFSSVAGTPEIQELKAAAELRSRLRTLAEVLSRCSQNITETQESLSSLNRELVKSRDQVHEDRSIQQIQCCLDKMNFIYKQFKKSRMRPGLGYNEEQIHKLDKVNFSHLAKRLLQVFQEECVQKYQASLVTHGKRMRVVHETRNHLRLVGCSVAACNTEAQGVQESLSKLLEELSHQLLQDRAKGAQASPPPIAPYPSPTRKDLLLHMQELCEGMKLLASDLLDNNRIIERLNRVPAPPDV
Summed up:
as §1

Assay [5] addresses T5, CDC42 BPG (MRCKG) (Homo sapiens, UniProt Q6DT37).
T5 construct: purchased Thermo Fisher Scientific
Summed up: as §1

Assay [6] has as its target T6, HIPK4 (Homo sapiens, UniProt Q8NE63).
T6 construct: purchased Thermo Fisher Scientific
T6 sequence (Q8NE63 1-616): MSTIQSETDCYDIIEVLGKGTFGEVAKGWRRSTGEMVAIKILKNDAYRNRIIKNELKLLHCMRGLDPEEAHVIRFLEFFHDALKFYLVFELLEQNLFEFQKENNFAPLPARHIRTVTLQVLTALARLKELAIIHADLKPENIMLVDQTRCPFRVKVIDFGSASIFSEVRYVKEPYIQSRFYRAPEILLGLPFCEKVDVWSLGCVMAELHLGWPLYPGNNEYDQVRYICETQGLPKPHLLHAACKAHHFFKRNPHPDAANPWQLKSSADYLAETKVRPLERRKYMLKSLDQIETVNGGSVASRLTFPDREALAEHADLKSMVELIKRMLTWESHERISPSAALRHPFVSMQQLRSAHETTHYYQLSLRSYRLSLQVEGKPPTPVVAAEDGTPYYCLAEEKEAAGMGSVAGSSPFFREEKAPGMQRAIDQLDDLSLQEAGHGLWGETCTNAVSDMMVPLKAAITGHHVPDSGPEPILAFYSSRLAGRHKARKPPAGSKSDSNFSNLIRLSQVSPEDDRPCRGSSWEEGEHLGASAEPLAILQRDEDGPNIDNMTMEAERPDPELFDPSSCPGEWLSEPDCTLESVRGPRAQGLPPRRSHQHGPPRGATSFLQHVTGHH
In a few lines:
as §1

Assay [7] concerns the target T7, FGFR4 (Homo sapiens, UniProt P22455).
T7 construct: purchased Thermo Fisher Scientific
In a few lines:
as §1

T5 sequence (Q6DT37 whole entry): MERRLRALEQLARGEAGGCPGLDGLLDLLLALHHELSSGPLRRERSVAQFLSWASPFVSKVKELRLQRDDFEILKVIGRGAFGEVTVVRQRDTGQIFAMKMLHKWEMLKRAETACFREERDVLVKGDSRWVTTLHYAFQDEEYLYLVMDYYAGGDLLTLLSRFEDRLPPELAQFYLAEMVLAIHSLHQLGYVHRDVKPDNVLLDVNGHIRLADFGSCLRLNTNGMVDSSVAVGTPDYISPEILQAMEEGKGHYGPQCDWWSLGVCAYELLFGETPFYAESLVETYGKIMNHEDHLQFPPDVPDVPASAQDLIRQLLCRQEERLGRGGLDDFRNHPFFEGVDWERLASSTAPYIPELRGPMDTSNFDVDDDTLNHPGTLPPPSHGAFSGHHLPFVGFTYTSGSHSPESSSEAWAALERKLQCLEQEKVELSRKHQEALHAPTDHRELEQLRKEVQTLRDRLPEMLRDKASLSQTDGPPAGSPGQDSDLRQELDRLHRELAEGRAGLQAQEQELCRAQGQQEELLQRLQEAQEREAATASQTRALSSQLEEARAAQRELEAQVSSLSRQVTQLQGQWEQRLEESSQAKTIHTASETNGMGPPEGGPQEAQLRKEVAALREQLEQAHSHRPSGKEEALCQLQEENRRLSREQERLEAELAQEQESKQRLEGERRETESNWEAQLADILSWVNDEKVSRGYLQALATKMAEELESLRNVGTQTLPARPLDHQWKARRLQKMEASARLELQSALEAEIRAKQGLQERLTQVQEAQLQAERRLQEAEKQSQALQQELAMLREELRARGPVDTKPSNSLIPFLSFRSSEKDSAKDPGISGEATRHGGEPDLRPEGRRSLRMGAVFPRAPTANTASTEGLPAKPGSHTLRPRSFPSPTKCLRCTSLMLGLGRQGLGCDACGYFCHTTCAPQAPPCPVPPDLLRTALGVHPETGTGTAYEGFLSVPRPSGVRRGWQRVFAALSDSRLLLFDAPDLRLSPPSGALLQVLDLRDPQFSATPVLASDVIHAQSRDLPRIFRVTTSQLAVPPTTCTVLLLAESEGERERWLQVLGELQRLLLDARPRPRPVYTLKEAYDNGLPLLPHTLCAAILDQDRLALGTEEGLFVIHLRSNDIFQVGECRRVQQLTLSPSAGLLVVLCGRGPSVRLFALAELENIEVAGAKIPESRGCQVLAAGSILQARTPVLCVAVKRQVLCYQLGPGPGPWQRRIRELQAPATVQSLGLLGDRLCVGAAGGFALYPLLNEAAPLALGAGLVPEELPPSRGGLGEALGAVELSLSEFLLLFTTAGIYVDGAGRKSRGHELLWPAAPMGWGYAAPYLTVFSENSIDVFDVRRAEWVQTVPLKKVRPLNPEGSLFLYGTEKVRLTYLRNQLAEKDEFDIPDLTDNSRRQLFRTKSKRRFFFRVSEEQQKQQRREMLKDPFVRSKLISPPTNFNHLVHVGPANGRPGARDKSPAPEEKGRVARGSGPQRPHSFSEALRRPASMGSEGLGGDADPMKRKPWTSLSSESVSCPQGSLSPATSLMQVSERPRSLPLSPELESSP
T7 sequence (P22455 22-802): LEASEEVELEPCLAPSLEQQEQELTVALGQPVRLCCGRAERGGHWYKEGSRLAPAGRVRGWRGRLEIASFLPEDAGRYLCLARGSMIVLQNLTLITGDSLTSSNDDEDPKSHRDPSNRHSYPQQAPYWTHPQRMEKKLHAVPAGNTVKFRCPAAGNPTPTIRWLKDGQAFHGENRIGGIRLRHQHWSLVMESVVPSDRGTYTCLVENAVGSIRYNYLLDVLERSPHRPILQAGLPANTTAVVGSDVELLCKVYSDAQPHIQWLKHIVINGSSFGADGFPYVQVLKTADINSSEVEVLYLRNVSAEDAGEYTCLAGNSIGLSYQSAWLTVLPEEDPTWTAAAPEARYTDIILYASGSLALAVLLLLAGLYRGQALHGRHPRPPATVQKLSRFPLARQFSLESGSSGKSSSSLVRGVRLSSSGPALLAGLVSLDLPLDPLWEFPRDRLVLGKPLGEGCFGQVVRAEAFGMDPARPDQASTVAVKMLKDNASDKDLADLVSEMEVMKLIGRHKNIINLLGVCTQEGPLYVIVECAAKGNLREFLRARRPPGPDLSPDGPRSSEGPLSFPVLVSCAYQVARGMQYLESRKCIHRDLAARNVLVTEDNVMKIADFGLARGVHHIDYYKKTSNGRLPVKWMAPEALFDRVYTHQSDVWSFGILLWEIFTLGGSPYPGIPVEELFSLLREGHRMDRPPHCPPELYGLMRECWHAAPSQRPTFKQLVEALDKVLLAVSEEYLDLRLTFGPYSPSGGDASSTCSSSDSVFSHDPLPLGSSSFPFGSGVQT

For orientation: inhibition means the relative decrease from the control value, in per cent. Consider `COc1ccc2c(c1OC)c(=O)n1c3ccc(O)cc3c3ccnc2c31` [MW01, 5-Hydroxy-10,11-dimethoxy-9H-benzo[c]indolo[3,2,1-ij][1,5]naphthyridin-9-one], for which the inhibition at 1 µM in assay [1] is 3%; in assay [2] it was 8%; in assay [3], -2%; in assay [4], 11%; in assay [5], 1%; in assay [6], 42%. For the same compound, the inhibition at 1 µM in assay [7] was 13%. Moreover, the inhibition at 10 µM in assay [1] stood at 19%; in assay [2] it was 18%; in assay [3], 12%; in assay [4], 17%; in assay [5] it was 5%; in assay [6], 62%. In addition, the inhibition at 10 µM in assay [7] came to 37%.
`COc1ccc2cc3c(N)nn(C(=O)c4cccc(N(C)C)c4)c3nc2c1` [MW05, (3-Amino-7-methoxypyrazolo[3,4-b]quinolin-1-yl)-[3-(dimethylamino)phenyl]methanone]: the inhibition at 1 µM in assay [1] came to 0%; in assay [2], 7%; in assay [3] it was 0%; in assay [4], 8%; in assay [5], 0%; in assay [6] it was 12%. The inhibition at 1 µM in assay [7] was found to be 13%. In addition, the inhibition at 10 µM was -6% in assay [1]; -5% in assay [2]; -3% in assay [3]; 6% in assay [4]; 0% in assay [5]; 8% in assay [6]. Moreover, the inhibition at 10 µM in assay [7] was -4%.
